We go through eleven compounds from patent US20080075786A1, “Antimicrobial agents derived from cream” (Universite de Montreal, priority 2006, published 2008).

Where two headings read alike, the source gives them in different places.

Data set [1] relates to Candida albicans ZK3379 strain (CAI-4 HWP1-lacZ). Briefly: C. albicans HWP1-lacZ beta-galactosidase and XTT assays (kinetics of germination inhibition in hyphae inducing media). Type of data set: cell-based. The following applies: for germ tube emergence and elongation: all inducing conditions tested (dextrose-free Sabouraud, Lee's, Spider, HFM7), 0-6 h (FIG. 2). The procedure: Candida albicans ZK3379 strain (CAI-4 HWP1-lacZ; Hogan, D A, Vik A, Kolter R (2004). A Pseudomonas aeruginosa quorum-sensing molecule influences Candida albicans morphology. Mol Microbiol 54: 1212-1223.) was used for beta-galactosidase and XTT assays. Cells from this strain were grown in YPDA at 30° C. to a density of about 1×10^8 cells/ml (hemacytometer). These late exponentially growing cells were then washed twice with water and kept on ice until used. Germination was induced by incubating cells (final density of 5×10^5 cells/ ml) at 37° C. in 2.5 ml of either dextrose-free Sabouraud (Joshi et al., 1973), Lee's (Lee K L, Buckley H R, Campbell C C (1975). An amino acid liquid synthetic medium for the development of mycelial and yeast forms of Candida albicans. Sabouraudia 13: 148-153, Spider (Liu H, Kohler J, Fink Gr (1994). Suppression of hyphal formation in Candida albicans by mutation of a STE12 homolog. Science 266: 1723-1726 or Hypha-Forming Media (Biswas S K, Yokoyama K, Kamei K, Nishimur K, Miyaji M (2001) Inhibition of hyphal growth of Candida albicans by activated lansoprazole, a novel benzimidazole proton pump inhibitor Med Mycol 39: 283-285.), supplemented with FFAs. All lipids were dissolved in ethanol. Assays were performed in duplicate in 24-wells mictotiter plates (Costar 3526) without agitation. After appropriate incubation times (i.e. 0, 2, 4 or 6 h), microtiter plates were centrifuged for 5 min at 2000 rpm (Jouan inc. CR3i) and supernatents, discarded. XTT assays were done immediately and essentially as described (Honraet K, Goetghebeur E, Nelis H J (2005). Comparison of three assays for the quantification of Candida biomass in suspension and CDC reactor grown biofilms. J Microbiol Methods 63: 287-295). For beta-galactosidase assays, microtiter plates were frozen at −80° C. and processed later as described (Kippert F (1995). A rapid permeabilization procedure for accurate quantitative determination of beta-galactosidase activity in yeast cells. FEMS Microbiol Lett 128: 201-206; Hogan et al., 2004) but directly in microtiters plates. Absorbances were measured in 96-well microtiters plates using a microtiter plate reader (Microplate Reader MR600), equipped with filters of 410 nm (beta-galactosidase) and 490 nm (XTT), respectively.
As inhibition of germination of C. albicans by molecules could be the result of early and/or late blocking events, a more comprehensive analysis of the activity of free fatty acids was performed using multiple time points and other germ tube inducing media. Therefore, germination was monitored at 0, 2, 4 and 6 h in dextrose-free Sabouraud, Lee's, Spider and HFM7 (i.e. serum) media using the C. albicans HWP1-lacZ assay: beta-galactosidase measurements should reflect the morphological change from yeast cells to hyphal growth (Hogan et al., 2004). beta-galactosidase results were normalized using the XTT assay (Honraet et al., 2005) to correct for biomass increase. Microscopic observations of cells after 6 h incubation are also presented for each inducing conditions and correlated with beta-galactosidase data (FIG. 2).

Data set [2] concerns Candida albicans SC5314 strain. Briefly: Germination inhibition assay (antihyphal growth activity). Type of data set: cell-based. As to conditions: for activity at inhibiting C. albicans germination: individual commercial free fatty acids, highest concentration used 81 μM. The procedure:
The Candida albicans SC5314 strain (Fonzi, W. A. and Irwin, M. Y. 1993. Isogenic strain construction and gene mapping in Candida albicans. Genetics 134: 717-728.) was used to investigate the antihyphal activity of whey cream lipids. This strain was routinely grown as yeast cells at 30° C. in YPD medium (1% yeast extract, 2% peptone, 2% dextrose). Germination was induced by incubating cells in dextrose-free Sabouraud (Difco; Joshi, K. R., Gavin, J. B., and Bremner, D. A. 1973. The formation of germ tubes by Candida albicans in various peptone media. Sabouraudia. 11: 259-262.) at 37° C. in 96-wells microtiter plates (Costar 3595). Briefly, cells from fresh YPD cultures were harvested and washed twice with sterile water. Washed cells were suspended in dextrose-free Sabouraud at a density of 5×10^3 cells/ml and then immediately distributed to microtiter wells containing an equal volume of dextrose-free Sabouraud supplemented with different concentrations of lipids. After 15 h incubation at 37° C. in an atmospheric incubator without agitation, cells were washed and fixed with a fresh 1% formaldehyde solution. The ability of lipids to inhibit germination was determined by microscopic observations.

The next data set deals with A. fumigatus. Nature of the data set: Antifungal assay against A. fumigatus (optical density at 630 nm). Type of data set: cell-based. The following applies: Aspergillus fumigatus, 40 h, Sabouraud, 30° C., commercial FFA. Here is the method: (§1) Fractionation of Blackcurrant Seed Oil. Journal of the American Oil Chemists Society 65: 755-760). […] Under constant stirring, the mixture was heated to 75° C., or until it became clear, and then cooled slowly to 2° C. After completion of urea crystallization at 2° C. (15 h), the UFFA enriched methanol phase was separated from the urea crystals by centrifugation (5 min) at 1000×g. […] Yields were determined gravimetrically. […] UV detection was used to monitor effluent at 215 nm. Water (10 ml) was added to each of the 45 collected HPLC fractions, and they were then extracted three times with hexane (3×10 ml). […] Antifungal assay using commercial FFA were done in quadruplicates. The antifungal activity was evaluated in 96-well microtiter plates (Costar 3595) using Sabouraud as incubating medium for A. fumigatus and dextrose-free Sabouraud for C. albicans. Spores of A. fumigatus (Jeanine Joly, Université de Montréal) were germinated at 25° C. on slant agar Sabouraud media. They were harvested by washing vigorously slant cultures with 5 ml of 0.9% NaCl. Coarse debris were removed by filtrating the Aspergillus spores suspension through a sterile cotton plugs inserted into a Pasteur pipet. Monodisperse spores suspensions were obtained following brief sonications in a water bath sonicator (Branson 1210). […] Blastospores of the C. albicans SC5314 strain were prepared as for germination inhibition assays (see above). […] Wells were washed three times with Sabouraud before optical reading.

Data set [3] has as its system C. albicans SC5314 strain. Briefly: Antifungal assay against C. albicans (optical density at 630 nm). Format: cell-based, Candida albicans. The following applies: Candida albicans, SC5314, 40 h, dextrose-free Sabouraud, 37° C., commercial FFA. Here is the method:
as §1

A short description of data set [4]: Cytotoxicity assay (LDH release). The following applies: human. Here is the method:
Cytotoxicity was evaluated using Peripheral Blood Mononuclear cells (PBMC) of volunteers donors (Royal Victoria Hospital, Montreal). These cells were purified by the ficoll-Paque PLUS according to the manufacturer (Amersham-Bioscience). PBMC were used at a density of 100 000 cells/ml in RPMI 1640 (Sigma) supplemented with 10% heat-inactivated fetal bovine serum, 0.3 g/L of L-glutamine, 2 g/L sodium carbonate, 100 U/ml of penicillin and 100 μg/ml of streptomycin (Sigma). Assays were done in 96-well microtiter plates (Costar 3595) and the cytotoxicity was evaluated after 24 hours of incubation at 37° C. in a 5% CO2 atmospheric incubator using the LDH Cytotoxicity detection kit, according to the manufacturer (Roche Diagnostic). […] FFA were diluted in ethanol (96%) and no more than 1% ethanol (final concentration) was used in assays. Ethanol (1%) was used as negative control.
This method measures the release of lactate dehydrogenase (LDH) from the cytosol of damaged cells into the supernatant (Roche Diagnostic).

Setting [5] is: Candida albicans, SC5314, 15 h, read-out: MIC, antihyphal growth activity of individual free fatty acids.
Setting [6] is: Candida albicans, SC5314, read-out: MIC, antihyphal growth activity of individual free fatty acids.
[7] abbreviates: Candida albicans, SC5314, commercial free fatty acids, complete inhibition of germination, 15 h, 37° C., gravimetrical quantification, read-out: MIC, antihyphal growth activity of individual free fatty acids.
Where [8] appears, read: Candida albicans, SC5314, same MIC in μg/ml (in brackets), commercial free fatty acids, gravimetrical quantification, read-out: MIC, antihyphal growth activity of individual free fatty acids.
Where [9] appears, read: commercial free fatty acids, complete inhibition of germination, 15 h, 37° C., gravimetrical quantification, read-out: MIC, antihyphal growth activity of individual free fatty acids.

Take `CCCCCCCC/C=C\CCCCCCCC(=O)O` [18:1(n-9), oleic acid, reference compound]: the “activity against the germination of C. albicans” value in data set [1] (all inducing media but HFM7) is reported as “weak or no activity”. Moreover, the values for the MIC in data set [2] (setting [5]) and in data set [2] (setting [6]) were more than 81 µM and more than 18.5 µg/mL, respectively. Besides, the “activity at inhibiting C. albicans germination” value in data set [2] is reported as “no or weak activity”.
`CCCCC/C=C\C/C=C\CCCCCCCC(=O)O` [18:2(n-6), linoleic acid]: the “germ tube emergence and elongation” value in data set [1] is on record as “produced germ tubes (2-4 h), but their further elongation was blocked”. In addition, the minimal inhibitory concentration (MIC) was 81 µM in data set [2] (setting [7]), 22.7 µg/mL in data set [2] (setting [8]) and 81 µM in data set [2] (setting [9]).
With `CCCCCCCCCCCCCCCCCC(=O)O` [18:0, stearic acid, reference compound], the figures for the MIC in data set [2] (setting [5]) and in data set [2] (setting [6]) were more than 81 µM and more than 23 µg/mL, respectively. For the same compound, in data set [2], the “activity at inhibiting C. albicans germination” value was “inactive”.
On to `CCCCC/C=C\C/C=C\C/C=C\C/C=C\CCCC(=O)O` [20:4(n-6), arachidonic acid], for which the “appearance of germ tubes” value in data set [1] (Spider and HFM7 media) is recorded as “partially inhibited the appearance of germ tubes”; in data set [1] (dextrose-free Sabouraud and Lee's inducing media), “strongly inhibited the appearance of germ tubes”. Further, the MIC worked out at 27 µM in data set [2] (setting [7]), 8.22 µg/mL in data set [2] (setting [8]) and 27 µM in data set [2] (setting [9]).
Turning to “conjugated linoleic acid [18:2(CLA 9c-11t)]”, the “germ tube emergence and elongation” value in data set [1] is “produced germ tubes (2-4 h), but their further elongation was blocked”. Besides, in data set [2] (setting [9]), the MIC was 9 µM. The “MIC, antihyphal growth activity of individual free fatty acids” value in data set [2] (same MIC in μg/ml (in brackets), commercial free fatty acids, gravimetrical quantification) was determined as 2.52 µg/mL.
Regarding `CCCCCC/C=C\CCCCCCCC(=O)O` [16:1(n-7), palmitoleic acid], the “toxicity for C. albicans blastospores” value in data set [1] (Lee's medium, data not shown) is given as “toxic”. Further, the “appearance of germ tubes” value in data set [1] (Spider and HFM7 media) is given as “partially inhibited the appearance of germ tubes”. The MIC was found to be 9 µM in data set [2] (setting [7]), 2.29 µg/mL in data set [2] (setting [8]) and 9 µM in data set [2] (setting [9]).
Regarding `CCCCCCCCCCCCCCCC(=O)O` [16:0, palmitic acid, reference compound], the MIC was more than 81 µM in data set [2] (setting [5]) and more than 20.8 µg/mL in data set [2] (setting [6]). In addition, in data set [2], the “activity at inhibiting C. albicans germination” value is “inactive”.
Take `CCCCCCCCCCCCCCC(=O)O` [15:0, pentadecanoic acid, reference compound]: the MIC is more than 81 µM in data set [2] (setting [7]) and more than 19.6 µg/mL in data set [2] (setting [8]). In data set [2], the “activity at inhibiting C. albicans germination” value is “inactive”.
For the compound `CCCCCCCCCCCCCC(=O)O` [14:0, myristic acid, reference compound], the values for the minimum inhibitory concentration (MIC) in data set [2] (setting [5]) and in data set [2] (setting [6]) were more than 81 µM and more than 18.5 µg/mL, respectively. Besides, the “activity at inhibiting C. albicans germination” value in data set [2] is “inactive”.
In the case of `CC(C)CCCCCCCCCC(=O)O` [12-methyldodecanoic acid (C13:0 i)], the concentration for half-maximal inhibition (IC50) is approximately 283 µM in the data set with A. fumigatus and approximately 49 µM in data set [3]. Also, the cytotoxic concentration (CC50) at 24 h in data set [4] is 70 µM.
For `CCCCCCCCCCCCCCCCC(=O)O` [17:0, heptadecanoic acid, reference compound], the MIC in data set [2] (setting [7]) was more than 81 µM; in data set [2] (setting [8]), more than 21.9 µg/mL. Besides, the “activity at inhibiting C. albicans germination” value in data set [2] was “inactive”.
